Data set [1] has as its system HIV-1 VLP assembly (Pr55Gag). The data set can be described thus: microbe, parasite or virus in culture. The note with it: for SI (ratio CC50:IC50): Table 2. Format: cell-based.
Procedure: Aliquots of Sf9 cells (10^6) were infected with two recombinant baculoviruses at equal multiplicity of infection (MOI of 10 PFU/cell, each). One expressed the HIV-1 Gag precursor (AcMNPV-Pr55Gag or control, p6-deleted AcMNPV-GagΔp6), the other the control Vpr protein (AcMNPV-Vpr) or the LucVpr fusion (AcMNPV-LucVpr). […] To avoid any interference with a possible effect of DMSO, DMSO was kept constant in volume in the different samples. […] Cells were harvested at 48 h pi, and extracellular VLP released in the culture medium were quantitated using luciferase assay. Membrane-enveloped VLP were pelleted and resuspended in lysis KDT buffer (KDT: 0.1M potassium phosphate buffer, pH 7.8, 1 mM DTT, containing 0.2% Triton X100) for 30 min at 37° C. with vortexing every 10 min. Luciferase activity associated with VLP was measured as previously described [10], using a Lumat LB-9501 luminometer (Berthold Technologies, Bad Wildbad, Germany). […] To compensate for eventual negative effects of drugs on LucVpr expression, the luciferase activity was measured in the corresponding cell lysates, obtained after lysis of the pelleted cells with KDT buffer. The results were expressed as relative light units (RLU) per μg protein. The values of the ratio of VLP-associated to intracellular luciferase activity were plotted versus the inhibitor concentration.
Cell culture medium was then harvested at 48 h pi, subjected to the 2-step ultracentrifugation analysis, and each gradient fraction probed for Gag polyprotein and luciferase activity, as above. […] The gradient fractions corresponding to the peak of luciferase activity were pooled, and the VLP contained in these fractions were pelleted, lysed and assayed for luciferase content.
Drug treatment was maintained for a further 24 h, and VLP released in the cell culture medium were pelleted through a sucrose cushion [8]. The amounts of extracellular VLP recovered in the 48 h-pellets obtained in the presence of the different inhibitors were determined using the luciferase assays. After normalization to the luciferase activity determined in the corresponding cell lysates, the values of the ratio of VLP-incorporated to cell-associated luciferase activity were plotted versus the drug concentrations.
Data set [2] in a line: Cytotoxicity, MTT assay (Table 1). The format is cell-based. The note with it: mean. On the procedure: The cellular toxicity of the different compounds was evaluated using the MTT assays. […] The selectivity index (SI) was defined as the ratio CC50: IC50 (Table 1).
For orientation: Formazan colour is commonly taken as a measure of viable cells.

The next data set relates to HIV-1. The data set can be described thus: Infection inhibition assay, MAGIC-5B indicator cells. The note with it: Table 1. On the procedure:
The evaluation of HIV-1 inhibition was carried out using MAGIC-5B indicator cells, which stably express the β-galactosidase reporter gene cloned downstream of the HIV-1 LTR promoter. Cells were plated at 8×10^4 cells per well, in 24-well plates and exposed to HIV-1 (x ng p24). Forty-eight hours post-infection, viral infectivity was monitored by quantification of o-nitrophenyl β-D-galactopyranoside hydrolysis from cell lysates (kit). β-galactosidase activity was normalized according to total protein content in the cell lysate. Control wells containing virus and cells only (no drug) and cells only (no virus or drug) were also prepared.

Data set [3] can be described thus: Cytotoxicity, MTT assay (Table 2). Format: cell-based. The note with it: for CC50: MTT assay, mean. On the procedure:
The cellular toxicity of the different compounds was evaluated using the MTT assays. […] The selectivity index (SI) was defined as the CC50 to IC50 ratio.

In data set [4] the test system is VLP assembly and budding. The experiment in a line: Electron microscopy of AcMNPV-Gag-infected Sf9 cells. The note with it: 5 and 10 μg/ml for 24 h at 24 h pi. The format is cell-based, HIV-1. On the procedure:
Baculovirus-infected Sf9 cells were harvested at 48 h pi, pelleted, fixed with 2.5% glutaraldehyde in 0.1 M phosphate buffer, pH 7.5, post-fixed with osmium tetroxide (2% in H2O) and treated with 0.5% tannic acid solution in H2O. The specimens were dehydrated and embedded in Epon (Epon-812; Fulham, Latham, N.Y.). Ultrathin sections were stained with 2.6% alkaline lead citrate and 0.5% uranyl acetate in 50% ethanol, and post-stained with 0.5% uranyl acetate solution in H2O [8,9]. Grids were examined under a Jeol JEM-1400 electron microscope, equipped with an ORIUS™ digitalized camera (Gatan France, 78113-Grandchamp). For statistical EM analyses, a minimum of 30 grid squares containing 10 to 20 cell sections each were examined for counting VLP budding at the cell surface, or budding in intracellular vesicular compartment.
By contrast, control, untreated AcMNPV-Gag-infected Sf9 cells were decorated with VLP budding in abundance from the plasma membrane.

The subject of the next data set is HIV-1 virion morphology. The data set can be described thus: Thin-section electron microscopy of virions from pNL4-3 transfected 293T cells. The following applies: pNL4-3, 5 μg/ml (FIG. 3). Format: cell-based. The protocol:
Two days after transfection, 293T cells were processed for thin-layer electron microscopy as follows: cells were fixed in situ with 2.5% glutaraldehyde in cacodylate buffer (pH 7.4) for 60 min at 4° C. Cells were then post-fixed with 2% osmium tetroxide, washed in cacodylate buffer containing 0.5% tanic acid, and embedded in epon (Embed-812, Electron Microscopy Sciences Inc.). Sections were counterstained with uranyl acetate and lead citrate and examined with an Hitachi H7100 transmission electron microscope.
In the absence of compounds, cells transfected with pNL4-3 produced virus particles with the classical mature morphology characterized by the presence of condensed, conical cores (FIG. 3A).

The subject of another data set is CA-SP1 cleavage. The experiment in a line: HIV-1 maturation inhibition assay, p25 (CA-SP1) to p24 (CA) processing in virion lysate. Format: cell-based. The following applies: Western blot (FIG. 2). The protocol:
Two days after transfection, virus-containing supernatants were concentrated by ultracentrifugation through a layer of 20% sucrose at 25 000 rpm for 2 h30. Viral pellets were then resuspended in RIPA lysis buffer [10 mM Tris-HCl (pH 7.4), 1 mM EDTA, 100 mM NaCl, 1% Triton X-100, 0.1% SDS, 0.25% sodium deoxycholate, 0.2% phenylmethylsulfonyl fluoride (PMSF)]. Viral proteins were loaded on a 12.5% SDS-PAGE gel.
To further elucidate the mechanism of action, viral samples used for infection assays were subjected to biochemical characterization (FIG. 2).
For orientation: Immunoblotting shows a protein as a band on a membrane.

The target in the next data set is T1, Pr55Gag (Human immunodeficiency virus type 1 group M subtype B, UniProt P03348).
T1 construct: AcMNPV-Pr55Gag expressed the full-length wild type (WT) Gag polyprotein (Pr55Gag); expressed in transfected cells; host or cells: Spodoptera frugiperda Sf9 cells infected with recombinant baculovirus AcMNPV-Pr55Gag
The data set can be described thus: Chemical cross-linking of intracellular Pr55Gag with BS3. The format is cell-based, HIV-1. The following applies: Sf9 cells, 10 μg/ml. The protocol: Aliquots of recombinant baculovirus-infected Sf9 cells (5×10^5 cells) untreated or treated with 16 at 10 ug/ml for 24 h at 24 h pi were centrifuged at low speed, resuspended in 200 μl of PBS containing the cross-linker bis(sulfosuccinimidyl)suberate (BS3; Pierce Biotechnology, Rockford, Ill.) at increasing molarities, ranging from 0 to 50 mM [12], and incubated in this buffer for 30 min at room temperature (RT). Cell samples were then centrifuged, resuspended and lysed in 200 μl 0.015 M NaCl, 0.5 mM phosphate buffer pH 7.3 containing BS3 at the same molarites as in the original mixtures, and further incubated for 30 min at RT. Cell lysates were mixed with 30 μl 6 times concentrated (6×) SDS-sample buffer without β-mercaptoethanol, heated to 100° C. for 1 min, and Gag proteins analyzed by SDS-PAGE and immunoblotting. […]
To further analyse the mechanism of the effect of 16 on Gag polyprotein assembly, untreated and 16-treated (10 μg/ml), Pr55Gag-expressing Sf9 cells were incubated with increasing concentrations of the chemical cross-linker BS3 at 48 h pi for 30 min at room temperature, then lysed in hypotonic medium in the presence of BS3 used in the same range of concentrations. The oligomeric status of the Gag proteins was assessed by SDS-PAGE and Western blot analysis, using anti-Gag antibody, peroxidase-labeled complementary antibody and enhanced chemiluminescence (ECL). […]

The subject of data set [5] is VLP assembly and budding. The note with it: 10 μg/ml (17 μM), previous study [8]; cited from earlier work.
A further data set deals with HIV-1 VLP. The following applies: read-out: IC50 previously determined using immuno-radiochemical assay of VLP; reference [8]; cited from earlier work.
Where [6] appears, read: Human immunodeficiency virus 1, read-out: IC50, inhibition of HIV-1 VLP assembly, Sf9 cells, mean.
The mark [7] stands for this setting: Human immunodeficiency virus 1, read-out: IC50, inhibition of HIV-1 VLP assembly, Sf9 cells, mean ± SEM, n = 4.

The structures appear in SMILES notation. “Also recorded” adds a separate entry of the source. Like-named read-outs stand apart in the source and are kept apart here.

Results on eight compounds are retold here after US9056888B2 (priority 2011, dated 2015).

On to `C=C(C)[C@@H]1CC[C@]2(C(=O)O)CC[C@]3(C)[C@H](CC[C@@H]4[C@@]5(C)CC[C@H](O)C(C)(C)[C@@H]5CC[C@]43C)[C@@H]12` [BA, betulinic acid, reference compound], for which the “SI (ratio CC50:IC50)” value in data set [1] is given as 1.1. In addition, the CC50 came out at 4.52 µM in data set [2] and 43.8 µM in data set [3]. Besides, the “SI (CC50/IC50 ratio)” value in the data set on HIV-1 is 0.85.

`C=C(C)[C@@H]1CC[C@]2(C(=O)NCC(=O)O)CC[C@]3(C)C(CCC4[C@@]5(C)CC[C@H](OC(=O)CC(C)(C)C(=O)O)C(C)(C)C5CC[C@]43C)C12` (stereo partly drawn) [Compound 12, N-[3β-(3-carboxy-3-methylbutanoyloxy)-lup-20,29-en-28-oyl]-glycine]: in data set [1] (Sf9 cells, mean, read-out: IC50, inhibition of HIV-1 VLP assembly), the IC50 was found to be 5.9 µM.

With `C=C(C)[C@@H]1CC[C@]2(C(=O)NCC(=O)O)CC[C@]3(C)[C@H](CC[C@@H]4[C@@]5(C)CC[C@H](OC(=O)CC(C)(C)C(=O)O)C(C)(C)[C@@H]5CC[C@]43C)[C@@H]12` [Compound 12, N-[3β-(3-carboxy-3-methylbutanoyloxy)-lup-20,29-en-28-oyl]-glycine], the values for the IC50 in data set [1] (setting [6]) and in data set [1] (setting [7]) were 5.9 µM and 3.8 ± 1.6 µg/mL, respectively. Also, in data set [1], the “SI (ratio CC50:IC50)” value came out at 5.3. For the same compound, the values for the half-maximal cytotoxic concentration (CC50) in data set [2] and in [3] were 49.5 µM and 31.1 µM, respectively. Further, the “effect on VLP assembly and budding by EM” value with VLP assembly and budding [4] was “net inhibitory effect on VLP assembly and budding”. Besides, the “virus morphology / virion maturation by EM” value in the data set on HIV-1 virion morphology is given as “lacked conical cores”. Also, the “inhibition of conversion of uncleaved p25 (CA-SP1) to mature p24 (CA)” value (shortened to “inhibition of conversion of uncleaved p25 … (CA)”) in the data set on CA-SP1 cleavage is “inhibit the CA-SP1 cleavage; also recorded: accumulation of p25 is observed”. In addition, the “SI (CC50/IC50 ratio)” value with HIV-1 turned out to be 309.37.

For `C=C(C)[C@@H]1CC[C@]2(C(=O)NC(CCCCNC(=O)OC(C)(C)C)C(=O)O)CC[C@]3(C)[C@H](CC[C@@H]4[C@@]5(C)CC[C@H](OC(=O)CC(C)(C)C(=O)O)C(C)(C)[C@@H]5CC[C@]43C)[C@@H]12` (stereo partly drawn) [Compound 15, N^2—[O^3-(3-carboxy-3-methylbutyryl)betulinyl]-N^6-Boc-L-lysine], the IC50 in data set [1] (setting [6]) is 1.9 µM; in data set [1] (setting [7]), 1 to 2 µg/mL. The “IC50, inhibition of HIV-1 VLP assembly” value in data set [1] (Sf9 cells, mean ± SEM, n = 4) is 1.6 ± 0.5 µg/mL. The “SI (ratio CC50:IC50)” value in [1] was 13.0. In addition, the half-maximal cytotoxic concentration (CC50) stood at 33 µM in [2] and 24.7 µM in data set [3]. Also, the “effect on VLP assembly and budding by EM” value in the data set on VLP assembly and budding [4] was “net inhibitory effect on VLP assembly and budding”. In addition, the “virus morphology / virion maturation by EM” value in the data set with HIV-1 virion morphology was “lacked conical cores”. For the same compound, the “inhibition of conversion of uncleaved p25 … (CA)” value with CA-SP1 cleavage is “inhibit the CA-SP1 cleavage; also recorded: accumulation of p25 is observed”. Besides, the “SI (CC50/IC50 ratio)” value in the data set with HIV-1 amounted to 199.41.

For `C=C(C)[C@@H]1CC[C@]2(C(=O)NCCN)CC[C@]3(C)C(CCC4[C@@]5(C)CC[C@H](OC(=O)CC(C)(C)C(=O)O)C(C)(C)C5CC[C@]43C)C12` (stereo partly drawn) [Compound 16, 4-({28-[(2-aminoethyl)amino]-28-oxolup-20,29-en-3β-yl}oxy)-2,2-dimethyl-4-oxobutanoic acid], the “level of cytotoxicity compared to the other drugs” value in data set [3] was “lowest level of cytotoxicity”.

Take `C=C(C)[C@@H]1CC[C@]2(C(=O)NCCN)CC[C@]3(C)[C@H](CC[C@@H]4[C@@]5(C)CC[C@H](OC(=O)CC(C)(C)C(=O)O)C(C)(C)[C@@H]5CC[C@]43C)[C@@H]12` [Compound 16, 4-({28-[(2-aminoethyl)amino]-28-oxolup-20,29-en-3β-yl}oxy)-2,2-dimethyl-4-oxobutanoic acid]: the CC50 stood at 33.9 µM in data set [2] and 120 µM in data set [3]. In addition, in the data set on HIV-1 virion morphology, the “virus morphology / virion maturation by EM” value is on record as “lacked conical cores”. Further, the “inhibition of conversion of uncleaved p25 … (CA)” value in the data set with CA-SP1 cleavage is “inhibit the CA-SP1 cleavage; also recorded: accumulation of p25 is observed”. In addition, the “Gag oligomerization status after BS3 cross-linking” value on Pr55Gag is “favored the occurrence and/or the stability and persistence of Gag trimers”.

Take `C=C(C)[C@@H]1CC[C@]2(C(=O)NC(CCCCN)C(=O)O)CC[C@]3(C)[C@H](CC[C@@H]4[C@@]5(C)CC[C@H](OC(=O)CC(C)(C)C(=O)O)C(C)(C)[C@@H]5CC[C@]43C)[C@@H]12` (stereo partly drawn) [Compound 17, N^2-[3β-(3-carboxy-3-methylbutanoyloxy)lup-20,29-en-28-oyl]-L-lysine]: the “VLP / particle assembly inhibition (in words)” value in data set [1] (FIG. 6) is reported as “resembled that of 12”.

Consider `C=C(C)[C@@H]1CC[C@]2(C(=O)O)CC[C@]3(C)[C@H](CC[C@@H]4[C@@]5(C)CC[C@H](OC(=O)CC(C)(C)C(=O)O)C(C)(C)[C@@H]5CC[C@]43C)[C@@H]12` [DSB, 3-O-(3′,3′-dimethylsuccinyl)-betulinic acid, reference compound], for which the IC50 in data set [1] (Human immunodeficiency virus 1, read-out: IC50, VLP formation) was 3.8 to 4.2 µM; in data set [1] (Human immunodeficiency virus 1, read-out: IC50, inhibition of HIV-1 VLP assembly) it was 3 ± 1 µg/mL; in data set [1] (Human immunodeficiency virus 1, read-out: concentration for 50% inhibition of VLP formation), 2.2 to 2.5 µg/mL; in the data set with HIV-1 VLP, 8 to 10 µM. For the same compound, in the data set with VLP assembly and budding [5], the “effect on VLP budding and egress” value was “totally abolished VLP budding and egress”. In the data set with HIV-1 virion morphology, the “virus morphology / virion maturation by EM” value is listed as “lacked conical cores”. In the data set on CA-SP1 cleavage (listed as 2), the “inhibition of conversion of uncleaved p25 … (CA)” value is recorded as “inhibit the CA-SP1 cleavage; also recorded: accumulation of p25 is observed”.

The CC50 is the concentration giving 50% cytotoxicity. A high value points to better tolerance by the cells.
